Experimental data published in patent US9593149B2, “Amylin and calcitonin receptor agonist” (Novo Nordisk A/S, priority 2014, dated 2017).
Numbered stars: 1 amine (or outer) side, 2 acyl side, 3 side chain; on linkers, the order of the positions; unused ones are H or OH. Side chains are listed from the residue outwards. Peptide text beside a SMILES is read from it. * marks the point of attachment. C20 diacid = O=C(O)CCCCCCCCCCCCCCCCCCC(=O)*; C18 diacid = O=C(O)CCCCCCCCCCCCCCCCC(=O)*; γGlu = O=C(O)[C@H](CCC(=O)[*:2])N[*:1]

Assays:
[1] = molecular target: T1, human amylin 3(a) receptor (human calcitonin receptor + RAMP-3), BHK570 cells (Homo sapiens, UniProt O60896+P30988); assay: Assay (II)b functional CRE-luciferase assay without albumin, human amylin receptor; format: cell-based; conditions: Tested without HSA; read-out: hAmylin-R funct. EC50
T1 construct: host or cells: BHK570
T1 sequence (O60896 24-148): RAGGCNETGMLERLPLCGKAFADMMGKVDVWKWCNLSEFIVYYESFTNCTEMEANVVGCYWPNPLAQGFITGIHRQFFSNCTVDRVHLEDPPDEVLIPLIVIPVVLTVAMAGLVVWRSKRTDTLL
T1 sequence (P30988 25-474): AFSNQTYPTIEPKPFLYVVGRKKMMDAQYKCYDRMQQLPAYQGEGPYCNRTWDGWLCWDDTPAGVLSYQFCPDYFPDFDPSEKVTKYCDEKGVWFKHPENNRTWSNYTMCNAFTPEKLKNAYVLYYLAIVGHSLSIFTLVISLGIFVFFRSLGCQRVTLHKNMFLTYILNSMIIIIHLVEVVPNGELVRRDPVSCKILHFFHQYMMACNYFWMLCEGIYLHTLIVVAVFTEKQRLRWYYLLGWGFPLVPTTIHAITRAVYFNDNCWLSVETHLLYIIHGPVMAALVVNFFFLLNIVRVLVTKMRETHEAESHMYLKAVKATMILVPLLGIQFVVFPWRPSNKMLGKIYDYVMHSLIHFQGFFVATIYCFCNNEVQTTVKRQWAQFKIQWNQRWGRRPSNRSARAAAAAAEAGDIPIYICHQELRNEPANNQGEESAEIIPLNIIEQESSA
Summary of the method: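 Agonism measured as CRE-driven luciferase luminescence after 3 h sample exposure at 37 °C, without albumin (0.1% ovalbumin, Hepes pH 7.4 medium). Reporter cells: BHK570 carrying human calcitonin receptor, co-transfected with RAMP-3 to form the amylin 3(a) receptor.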

rat calcitonin receptor = molecular target: T2, rat calcitonin receptor (Rattus norvegicus, UniProt P32214); assay: Assay (VIII) binding to the rat calcitonin receptor; conditions: membranes; read-out: rCT-R binding IC50
T2 construct: expressed in transfected cells; host or cells: BHK tk'ts 13 (transient, FuGENE 6)
T2 sequence (P32214 25-479 isoform P32214-2 limits assumed): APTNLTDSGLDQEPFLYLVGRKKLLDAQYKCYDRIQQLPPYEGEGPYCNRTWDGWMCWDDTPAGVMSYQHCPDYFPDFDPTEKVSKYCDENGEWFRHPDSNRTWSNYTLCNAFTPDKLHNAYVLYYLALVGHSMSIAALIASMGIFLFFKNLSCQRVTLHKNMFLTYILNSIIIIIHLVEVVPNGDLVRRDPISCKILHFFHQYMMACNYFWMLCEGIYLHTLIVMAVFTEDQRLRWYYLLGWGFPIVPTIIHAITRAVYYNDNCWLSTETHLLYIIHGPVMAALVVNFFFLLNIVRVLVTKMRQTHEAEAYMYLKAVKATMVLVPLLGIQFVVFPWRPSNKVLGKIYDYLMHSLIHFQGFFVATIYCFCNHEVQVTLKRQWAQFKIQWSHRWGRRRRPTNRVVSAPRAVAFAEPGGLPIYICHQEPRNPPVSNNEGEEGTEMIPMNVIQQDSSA
Summary of the method: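 Affinity given as IC50 from a one-site competition fit of bound radioactivity, counted by scintillation after cold HBSS washes and NaOH/SDS lysis. Membranes came from BHK tk'ts 13 cells transiently expressing the rat receptor; other conditions followed the human calcitonin receptor protocol.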

[2] = molecular target: T1, human amylin 3(a) receptor (human calcitonin receptor + RAMP-3), BHK570 cells; assay: Assay (II)a functional CRE-luciferase assay with albumin, human amylin receptor; format: cell-based; conditions: Tested with HSA; read-out: hAmylin-R funct. EC50
Summary of the method: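 BHK570 cells stably carry a CRE-luciferase reporter and the calcitonin receptor; co-transfected RAMP-3 gives the amylin 3(a) receptor line. Cells were treated for 3 h at 37 °C in DMEM with 10% FBS and 10 mM Hepes, pH 7.4. cAMP-driven luciferase was read by LucLite luminescence after 30 min at RT.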

SMILES	EC50 [1]	IC50 (rat calcitonin receptor)	EC50 [2]
CC(C)C[C@H](NC(=O)[C@H](C)NC(=O)[C@H](C)NC(=O)[C@@H](NC(=O)[C@H](CO)NC(=O)[C@H](CC(C)C)NC(=O)[C@H](CCC(=O)O)NC(=O)[C@H](CO)NC(=O)[C@H](C)NC(=O)[C@H](C)NC(=O)CC[C@H](NC(=O)CCCCCCCCCCCCCCCCCCC(=O)O)C(=O)O)[C@@H](C)O)C(=O)NCC(=O)N[C@@H](CCCNC(=N)N)C(=O)N[C@@H](CC(C)C)C(=O)N[C@@H](CO)C(=O)N[C@@H](C)C(=O)N[C@@H](CCC(=O)O)C(=O)N[C@@H](CC(C)C)C(=O)N[C@@H](Cc1c[nH]cn1)C(=O)N[C@@H](CCC(=O)O)C(=O)N[C@@H](CC(C)C)C(=O)N[C@@H](C)C(=O)N[C@H](C(=O)N[C@@H](Cc1ccc(O)cc1)C(=O)N1CCC[C@H]1C(=O)N[C@@H](CCCNC(=N)N)C(=O)N[C@H](C(=O)N[C@@H](CCC(=O)O)C(=O)N[C@H](C(=O)NCC(=O)N[C@@H](CO)C(=O)NCC(=O)N[C@@H](CO)C(=O)N1CCC[C@H]1C(N)=O)[C@@H](C)O)[C@@H](C)O)[C@@H](C)O [compound 57, [N-terminal(C20 diacid-gGlu), 1A, 23Y, 30S, 31G]mimylin] ({C20 diacid-γGlu}-AASELSTAALGRLSAELHELATYPRTETGSGSP-NH2)	0.02 nM	0.044 nM	
CC(=O)N[C@@H](C)C(=O)N[C@@H](CO)C(=O)N[C@@H](CCCCNC(=O)CC[C@H](NC(=O)CCCCCCCCCCCCCCCCCCC(=O)O)C(=O)O)C(=O)N[C@@H](CC(C)C)C(=O)N[C@@H](CO)C(=O)N[C@H](C(=O)N[C@@H](C)C(=O)N[C@@H](C)C(=O)N[C@@H](CC(C)C)C(=O)NCC(=O)N[C@@H](CCCNC(=N)N)C(=O)N[C@@H](CC(C)C)C(=O)N[C@@H](CO)C(=O)N[C@@H](C)C(=O)N[C@@H](CCC(=O)O)C(=O)N[C@@H](CC(C)C)C(=O)N[C@@H](Cc1c[nH]cn1)C(=O)N[C@@H](CCC(=O)O)C(=O)N[C@@H](CC(C)C)C(=O)N[C@@H](C)C(=O)N[C@H](C(=O)N[C@@H](CC(C)C)C(=O)N1CCC[C@H]1C(=O)N[C@@H](CCCNC(=N)N)C(=O)N[C@H](C(=O)N[C@@H](CCC(=O)O)C(=O)N[C@H](C(=O)NCC(=O)N[C@@H](CO)C(=O)NCC(=O)N[C@@H](CO)C(=O)N1CCC[C@H]1C(N)=O)[C@@H](C)O)[C@@H](C)O)[C@@H](C)O)[C@@H](C)O [compound 68, [N-terminal(acetyl), des1, 4K(C20 diacid-gGlu), 30S, 31G]mimylin] (Ac-ASK([γGlu-C20 diacid])LSTAALGRLSAELHELATLPRTETGSGSP-NH2)	0.036 nM	0.01 nM	0.072 nM
CC(C)C[C@H](NC(=O)[C@H](CCCNC(=N)N)NC(=O)CNC(=O)[C@H](CC(C)C)NC(=O)[C@@H](NC(=O)[C@H](C)NC(=O)[C@@H](NC(=O)[C@H](CO)NC(=O)[C@H](CC(C)C)NC(=O)[C@H](CCC(=O)O)NC(=O)[C@H](CO)NC(=O)[C@H](C)NC(=O)CC[C@H](NC(=O)CCCCCCCCCCCCCCCCCCC(=O)O)C(=O)O)[C@@H](C)O)C(C)C)C(=O)N[C@@H](CO)C(=O)N[C@@H](CCC(N)=O)C(=O)N[C@@H](CCC(=O)O)C(=O)N[C@@H](CC(C)C)C(=O)N[C@@H](Cc1c[nH]cn1)C(=O)N[C@@H](CCC(=O)O)C(=O)N[C@@H](CC(C)C)C(=O)N[C@@H](CCC(N)=O)C(=O)N[C@H](C(=O)N[C@@H](Cc1ccc(O)cc1)C(=O)N1CCC[C@H]1C(=O)N[C@@H](CCCNC(=N)N)C(=O)N[C@H](C(=O)N[C@@H](CCC(=O)O)C(=O)N[C@H](C(=O)NCC(=O)N[C@@H](CO)C(=O)NCC(=O)N[C@H](C(=O)N[C@@H](Cc1ccc(O)cc1)C(N)=O)[C@@H](C)O)[C@@H](C)O)[C@@H](C)O)[C@@H](C)O [compound 114, [N-terminal(C20 diacid-gGlu), des1, 9V, 15Q, 21Q, 23Y, 30S, 31G, 32T, 33Y]mimylin]		0.021 nM	0.142 nM
CC(C)C[C@H](NC(=O)[C@H](CCC(=O)O)NC(=O)[C@H](C)NC(=O)[C@@H](NC(=O)[C@H](CC(C)C)NC(=O)[C@H](CCCNC(=N)N)NC(=O)CNC(=O)[C@H](CC(C)C)NC(=O)[C@@H](NC(=O)[C@H](C)NC(=O)[C@@H](NC(=O)[C@@H](NC(=O)[C@H](CC(C)C)NC(=O)[C@H](CCC(=O)O)NC(=O)[C@H](CO)NC(=O)[C@H](C)NC(=O)CC[C@H](NC(=O)CCCCCCCCCCCCCCCCC(=O)O)C(=O)O)[C@@H](C)O)[C@@H](C)O)C(C)C)[C@@H](C)O)C(=O)N[C@@H](Cc1c[nH]cn1)C(=O)N[C@@H](CCC(=O)O)C(=O)N[C@@H](CC(C)C)C(=O)N[C@@H](CCC(=O)O)C(=O)N[C@H](C(=O)N[C@@H](CC(C)C)C(=O)N1CCC[C@H]1C(=O)N[C@@H](CCCNC(=N)N)C(=O)N[C@H](C(=O)N[C@@H](CCC(=O)O)C(=O)N[C@H](C(=O)NCC(=O)N[C@H](C(=O)NCC(=O)N[C@H](C(=O)N1CCC[C@H]1C(N)=O)[C@@H](C)O)[C@@H](C)O)[C@@H](C)O)[C@@H](C)O)[C@@H](C)O [compound 105, [N-terminal(C18 diacid-gGlu), des1, 6T, 9V, 14T, 21E, 30T, 31G, 32T]mimylin] ({C18 diacid-γGlu}-ASELTTAVLGRLTAELHELETLPRTETGTGTP-NH2)		0.072 nM	
